Measured values published in patent US10912740B2, “Treating hepatitis C with cannabidiol” (Vilotos Pharmaceuticals, Inc., priority 2017, dated 2021).
Entries after “also recorded” stand apart in the source; their conditions may differ.

Key:
[1] = test system: HBV; experiment: Anti-hepatitis B assay: extracellular HBV DNA by TaqMan PCR from HepG2 2.2.15 cells; assay type: cell-based, Hepatitis B virus (wild-type ayw1 strain); details: for Percentage virus inhibition: HBV, HepG2 2.2.15 cells, six days
From the text: (§1) The pure cannabis cannabinoid CBD of FIG. 2 was subjected to a modified anti-hepatitis B assay. [Korba B E, Gerin J L, Use Of A Standardized Cell Culture Assay To Assess Activities Of Nucleoside Analogs Against Hepatitis B Virus Replication, Antiviral Res, 19:55-70 (1992); Korba B E, Milman G., A Cell Culture Assay For Compounds Which Inhibit Hepatitis B Virus Replication, Antiviral Res 1991; 15:217-28]. The modifications allowed use in real time quantitative polymerase chain reaction (PCR) (TaqMan) to measure extracellular HBV DNA copy number associated with virions released from HepG2 2.2.15 cells. The HepG2 2.2.15 cell line is a stable cell line producing high levels of the wild-type ayw1 strain of HBV. Antiviral compounds blocking any later step of viral replication such as transcription, translation, pregenomeencapsidation, reverse transcription, particle assembly, and release can be identified and characterized using this cell line. In brief, HepG2 2.2.15 cells are plated in 96-well microtiter plates. Only the interior wells were utilized to reduce “edge effects” observed during cell culture; the exterior wells were filled with complete medium to help minimize sample evaporation. After incubation with 5% CO2 atmosphere at 37° C. for 16-24 h, the confluent monolayer of HepG2 2.2.15 cells was washed and the medium was replaced with complete medium containing test compounds at a single concentration of 10 μM. Three days later, the culture medium was replaced with fresh medium and test compounds at a single concentration of 10 μM. Six days following the initial administration of the test compounds, the cell culture supernatant was collected, treated with pronase and DNAse, and then used in a real-time quantitative TaqMan PCR assay. Antiviral activity was determined by calculating the reduction in HBV DNA levels compared to untreated virus control samples. Compound cytotoxicity was determined using MTS (CellTiter 96 Reagent, Promega) to measure cell viability as described above.

[2] = Compound cytotoxicity (MTS cell viability) in the anti-hepatitis B assay; assay type: cell-based; details: human, HepG2 2.2.15 cells (stable HBV-producing line), HBV assay, HepG2 2.2.15 cells
From the text: as §1

[3] = test system: hepatitis C virus; experiment: Dose-response assay against hepatitis C virus (EC50); assay type: cell-based; details: for EC50: Hepatitis C virus, read-out: ES50 (EC50 against hepatitis C virus)
Experimental: (§2) Huh7.5 cells are grown in Dulbecco's modified essential media (DMEM), 10% fetal bovine serum (FBS), 1% penicillin-streptomycin (pen-strep), 1% Non-essential amino acids (NEAA) in a 5% CO2 incubator at 37° C. Huh7.5 cells were seeded at 1×10^4 cells per well into 96-well plates according to Southern Research Institute standard format. The test article was serially diluted with DMEM plus 5% FBS. The diluted compound in the amount of 50 μl was mixed with equal volume of cell culture-derived HCV (HCVcc), then applied to appropriate wells in the plate. Human interferon alpha-2b (rIFNα-2b) was included as a positive control compound. After 72 hr incubation at 37° C., the cells were lysed for measurement of luciferase activity using Renilla Luciferase Assay System (Promega) according to manufacturer's instruction. The number of cells in each well were determined by CytoTox-1 reagent (Promega). Test articles were tested with 6 serial dilution in triplicate to derive, if applicable, IC50 and IC90 (concentration inhibiting HCVcc infectivity by 50% and 90%, respectively), TC50 (concentration decreasing cell viability by 50%) and SI (selective index: TC50/IC50) values. In the replicon assay, Sub-confluent cultures of the ET line were plated out into 96-well plates that are dedicated for the analysis of cell numbers (cytotoxicity) or antiviral activity and the next day drugs were added to the appropriate wells. Cells were processed 72 hours later when the cells were still sub-confluent. After six half-log serial dilutions of the compound, the applicable EC50 (concentration inhibiting HCV replicon by 50%), EC90 (concentration inhibiting HCV replicon by 90%), IC50 (concentration decreasing cell viability by […]) and SI (selective index: […]) values were derived. HCV replicon levels are assessed as replicon derived Luc activity. The toxic concentration of drug that reduced cell numbers was assessed by the CytoTox-1 cell proliferation assay (Promega), a fluorometric assay of cell numbers (and cytotoxicity). […]

[4] = Cytotoxicity (CC50) in the HCV dose-response assay; assay type: cell-based; details: human, Huh7.5 cells
Experimental: (§3) Huh7.5 cells are grown in Dulbecco's modified essential media (DMEM), 10% fetal bovine serum (FBS), 1% penicillin-streptomycin (pen-strep), 1% Non-essential amino acids (NEAA) in a 5% CO2 incubator at 37° C. Huh7.5 cells were seeded at 1×10^4 cells per well into 96-well plates according to Southern Research Institute standard format. The test article was serially diluted with DMEM plus 5% FBS. The diluted compound in the amount of 50 μl was mixed with equal volume of cell culture-derived HCV (HCVcc), then applied to appropriate wells in the plate. Human interferon alpha-2b (rIFNα-2b) was included as a positive control compound. After 72 hr incubation at 37° C., the cells were lysed for measurement of luciferase activity using Renilla Luciferase Assay System (Promega) according to manufacturer's instruction. The number of cells in each well were determined by CytoTox-1 reagent (Promega). […] HCV replicon levels are assessed as replicon derived Luc activity. The toxic concentration of drug that reduced cell numbers was assessed by the CytoTox-1 cell proliferation assay (Promega), a fluorometric assay of cell numbers (and cytotoxicity). […]

[5] = test system: HepG2 2.2.15 cells; experiment: Compound cytotoxicity (MTS cell viability) in the anti-hepatitis B assay; assay type: cell-based; details: cells used to culture HBV
From the text: as §1

[6] = test system: HCVcc; experiment: Anti hepatitis C activity assay: HCVcc infectivity in Huh7.5 cells, luciferase readout, single dose; assay type: cell-based, Hepatitis C virus
Experimental: as §2

[7] = Cytotoxicity (CytoTox-1 cell number) in the HCVcc assay; assay type: cell-based; details: human, Huh7.5 cells infected with HCVcc; HCVcc assay, Huh7.5 cells; CBD at 10 μM
Experimental: as §3

[8] = test system: Huh7.5 cells; experiment: as above; assay type: cell-based; details: cells used to culture HCV
Experimental: as §3

| Compound | Percentage virus inhibition ([1]; Lamivudine at 2 (row head pM)) | cytotoxicity at 6 days, 2 µM (printed pM) ([2]; Lamivudine at 2 (row head pM)) | EC50 [3] | CC50 at 72 h [4] | Percentage virus inhibition ([1]; CBD at single dose 10 (title uM, row head pM)) | Activity against HBV in vitro / inhibition of viral replication (in words) ([1]; in vitro, single-dose assay) | cytotoxicity at 6 days, 10 µM ([2]; CBD at 10 (title uM, row head pM)) | Cytotoxicity against HepG2 2.2.15 cells (in words) [5] | Percentage virus inhibition ([6]; HCVcc, CBD at single concentration 10 μM, Huh7.5 cells, 72 hr, 10 µM) | inhibition at 10 µM ([6]; Hepatitis C virus, Huh7.5, 72 h, HCVcc, CBD at single concentration 10 μM, Huh7.5 cells, 72 hr, read-out: Percentage virus inhibition) | Activity against HCV in vitro / inhibition of viral replication (in words) ([6]; in vitro, single-dose assay) | cytotoxicity at 72 h, 10 µM [7] | Toxicity against Huh7.5 cells (in words) [8] | Inhibition of the HCV virus in the dose-response assay (in words) ([3]; dose-response assay (Table 2)) |
| --- | --- | --- | --- | --- | --- | --- | --- | --- | --- | --- | --- | --- | --- | --- |
| Nc1ccn([C@@H]2CS[C@H](CO)O2)c(=O)n1 [Lamivudine, reference compound] | 97.7% | 0% | – | – | – | – | – | – | – | – | – | – | – | – |
| CC(C)OC(=O)[C@H](C)N[P@](=O)(OC[C@H]1O[C@@H](n2ccc(=O)[nH]c2=O)[C@](C)(F)[C@@H]1O)Oc1ccccc1 [Sofosbuvir, reference compound] | – | – | 0.055 ± 0.0104 µM | > 10 µM | – | – | – | – | – | – | – | – | – | – |
| C=C(C)[C@@H]1CCC(C)=C[C@H]1c1c(O)cc(CCCCC)cc1O [CBD, Cannabidiol] | – | – | 3.16 µM | 15.7 ± 0.25 µM | 0% | not against HBV; also recorded: not active | 65.7% | significant cytotoxicity | 84.6% | 86.4% | active against HCV | 2.7% | minimal toxicity | dose-dependent inhibition |
